# From patent US20150018411A1, “COMPOUNDS AS PPAR BETA/DELTA INHIBITORS FOR TREATING PPAR BETA/DELTA-MEDIATED DISEASES” (PHILIPPS-UNIVERSITAT MARBURG, priority 2011, published 2015)
# Entries after “also recorded” stand apart in the source; their conditions may differ.
# What was measured:
# ANGPTL4 gene expression [1] = test: ANGPTL4 gene expression (qPCR) in WPMY-1 myofibroblasts; assay type: cell-based, human; details: Homo sapiens, 6 h; WPMY-1 cells, six hours treatment; read-out: IC50 (mean inhibitory concentration), endogenous ANGPTL4 expression
# Procedure: (§1) FIG. 5: Influence of the substances of this invention comparative compound (CC) 2, compound 1, compound 5, compound 2 and compound 3 on ANGPTL4 gene expression. • (A) Comparison of relative ANGPTL4 expression, (B) mean inhibitory concentration of substances of this invention. (A) Human myofibroblasts (WPMY-1) are treated for 24 hours with the substances of this invention (1 μM), then RNA is isolated, the cDNA synthesized and analyzed by qPCR, normalized to L27 gene expression. (B) Titration of the effect of substances of this invention on the endogenous ANGPTL4 expression in WPMY-1 cells (left) or peritoneal mouse macrophages (right) after cells have been treated for six hours with the substances of this invention compound 1 and compound 2, respectively; RNA isolation, cDNA synthesis and qPCR as described for (A). The relative expression is calculated in relation to DMSO-treated cells. All values are average values of triplicates (+1-standard deviation). Asterisks (***, **, *) indicate significant differences to DMSO-treated cells (***: p<0.001 after t-test; *: p <0.05).
# The influence of substances of this invention on PPAR-beta/delta regulated genes like for example ANGPTL4 which codes for the angiopoietin-like protein ANGPTL4 is assessed in different cells with a confluence of 70% to 80% in a 6-well cell culture plate. For this purpose, cultivated human myofibroblasts (WPMY-1), peritoneal mouse macrophages or cells of the human breast cancer cell line MDA-MB-231 are treated for 24 hours with 1 μM of the substances of this invention. Cells of the breast cancer cell line are in addition stimulated for 6 hours with TGF-beta2 (2 ng/ml) which is commercially available. Subsequently, RNA is isolated from the cells by procedures known to the expert and analyzed by quantitative PCR (qPCR, real time qPCR, RT-qPCR) also known to those skilled in the art. […]
# GST-PPAR beta/delta LBD [2] = target: T1, GST-PPAR beta/delta LBD (Homo sapiens, UniProt Q03181); test: Ligand-induced binding of corepressor peptide SMRT-ID2, TR-FRET; assay type: biochemical; details: concentration dependent
# T1 construct: GST-PPAR beta/delta LBD (GST=glutathione S-transferase); purchased Invitrogen, Darmstadt, Germany
# T1 sequence (Q03181 211-439 limits assumed): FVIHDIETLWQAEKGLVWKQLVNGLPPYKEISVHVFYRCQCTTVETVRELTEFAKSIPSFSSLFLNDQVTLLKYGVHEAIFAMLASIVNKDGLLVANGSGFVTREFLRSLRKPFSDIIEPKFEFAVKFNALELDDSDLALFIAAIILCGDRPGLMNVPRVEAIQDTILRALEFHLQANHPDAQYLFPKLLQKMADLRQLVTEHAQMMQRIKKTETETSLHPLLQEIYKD
# Procedure: FIG. 2: Induction of corepressor peptide binding to GST-PPAR beta/delta ligand binding domain (LBD) in vitro in dependency of the concentration of the substances of this invention comparative compound (CC) 2, compound 1 (A), compound 2 (B), compound 3 (C), compound 4 (D) and compound 5 (E). The interaction of fluorescein-labeled SMRT-ID2 peptide with recombinant GST-PPAR beta/delta LBD bound to a terbium-labeled anti-GST antibody is determined by TR-FRET analysis. Shown is the ratio of fluorescence intensity at 520 nm (fluorescein emission, excited by terbium emission) and 495 nm (terbium emission). All data points represent average values of triplicates (+/−standard deviation).
# B) The ligand-induced binding of the commercially available fluorescein-labeled corepressor peptide SMRT-ID2 ([…]) (Invitrogen, Darmstadt, Germany) to GST-PPAR beta/delta is for example measured by TR-FRET analysis using a terbium-labeled anti-GST antibody in a VICTOR3V Multilabel Counter (WALLAC 1420; PerkinElmer Life and Analytical Sciences, Rodgau, Germany). The measurement is performed in a buffer composed of 100 mM KC, 20 mM Tris pH 7.9, 0.01% Triton X100 and 1 μg/μL bovine serum albumin.
# ANGPTL4 gene expression [3] = test: ANGPTL4 gene expression (qPCR) in peritoneal mouse macrophages; assay type: cell-based; details: Macrophage, 6 h, six hours treatment, read-out: IC50 (mean inhibitory concentration), endogenous ANGPTL4 expression
# Procedure: as §1, with “All values are average values of triplicates (+1-standard deviation). Asterisks (***, **, *) indicate significant differences to DMSO-treated cells (***: p<0.001 after t-test; *: p <0.05).” left out
# The influence of substances of this invention on PPAR-beta/delta regulated genes like for example ANGPTL4 which codes for the angiopoietin-like protein ANGPTL4 is assessed in different cells with a confluence of 70% to 80% in a 6-well cell culture plate. […] Subsequently, RNA is isolated from the cells by procedures known to the expert and analyzed by quantitative PCR (qPCR, real time qPCR, RT-qPCR) also known to those skilled in the art. […]
# ANGPTL4 gene expression [4] = test: ANGPTL4 expression (qPCR) in breast cancer cell line MDA-MB-231; assay type: cell-based, human; details: for TGF-beta2-induced ANGPTL4 expression: MDA-MB-231, 1 μM pre-treatment 24 hours, then TGF-beta2 2 ng/ml for 6 hours
# Procedure: FIG. 6: Influence of the substances of this invention compound 1 and compound 5 on the induction of ANGPTL4 expression by TGF-beta2 in the breast cancer cell line MDA-MB-231. • The human breast cancer cell line MDA-MB-231 is pre-treated for 24 hours with 1 μM of the substances of this invention compound 1 or compound 5, respectively, and subsequently stimulated with TGF-beta2 (2 ng/ml) for 6 hours. The relative ANGPTL4 expression is determined by qPCR.
# The influence of substances of this invention on PPAR-beta/delta regulated genes like for example ANGPTL4 which codes for the angiopoietin-like protein ANGPTL4 is assessed in different cells with a confluence of 70% to 80% in a 6-well cell culture plate. For this purpose, cultivated human myofibroblasts (WPMY-1), peritoneal mouse macrophages or cells of the human breast cancer cell line MDA-MB-231 are treated for 24 hours with 1 μM of the substances of this invention. Cells of the breast cancer cell line are in addition stimulated for 6 hours with TGF-beta2 (2 ng/ml) which is commercially available. Subsequently, RNA is isolated from the cells by procedures known to the expert and analyzed by quantitative PCR (qPCR, real time qPCR, RT-qPCR) also known to those skilled in the art. For this, cDNA is synthesized using 0.25 μg to 1 μg of RNA, oligo(dT)-primers and a commercially available cDNA synthesis kit. qPCR is then conducted in a Mx3000P RT-qPCR system (Stratagene, La Jolla, Calif., USA) according to the manufacturer's instructions with 40 cycles, an annealing temperature of 60° C., and for example human ANGPTL4 primers (fw: […]; rv: […]) and the ribosomal I27 (fw: […]; rv: […]) as normalizing gene known to the expert in this field. […] The respective IC50 value (mean inhibitory concentration) for substances of this invention compound 1 and compound 2 is depicted in FIG. 5 B and is maximal 20 nM in WPMY-1 cells and maximal 30 nM in peritoneal mouse macrophages, respectively.
# GST-PPAR beta/delta LBD [5] = target: T1, GST-PPAR beta/delta LBD; test: Inhibition of compound 1-induced binding of corepressor peptide SMRT-ID2, TR-FRET; assay type: biochemical; details: 1 μM test substance, increasing concentrations of inverse agonist compound 1
# Procedure: FIG. 3: Inhibition of agonist-induced co-activator peptide binding (A) and inverse agonist compound 1-induced corepressor peptide binding (B) by the substance of this invention compound 5. • The recruitment of the co-activator or corepressor peptide, respectively, is determined in a TR-FRET assay. As co-activator peptide, C33 is utilized, as corepressor peptide SMRT-ID2. The experiment is performed with a constant concentration of 1 μM of the substance of this invention compound 5 and increasing concentrations of the agonist L165041 (A) or the inverse agonist compound 1 (B), respectively.
# C) The inhibition of the recruitment of co-activator peptide C33 known to the expert in this field mediated by PPAR beta/delta agonist L165,041 or the inhibition of the inverse agonist inventive compound 1-mediated binding of the corepressor peptide SMRT-ID2 to GST-PPAR beta/delta LBD by the substance of this invention compound 5 (1 μM) was also determined by TR-FRET measurements. Both is shown in FIGS. 3 A and B in dependency of the concentration of the agonist (A) and the inverse agonist (B), respectively.
IC50 (ANGPTL4 gene expression [3]) [nM],inhibition of compound 1-mediated interaction of LBD with corepressor peptide SMRT-ID2 (GST-PPAR beta/delta LBD [5]),Structure (SMILES),IC50 (ANGPTL4 gene expression [1]) [nM],induction of interaction of PPAR beta/delta LBD with corepressor peptide SMRT-ID2 (GST-PPAR beta/delta LBD [2]),TGF-beta2-induced ANGPTL4 expression (ANGPTL4 gene expression [4]),ANGPTL4 expression (ANGPTL4 gene expression [4]; breast cancer cell line MDA-MB-231-luc21H4)
≤ 30,–,"CCCCCCNc1ccc(NS(=O)(=O)c2ccsc2C(=O)OC)c(OC)c1 [compound 1, methyl 3-(N-(4-(hexylamino)-2-methoxyphenyl)sulfamoyl)thiophene-2-carboxylate]",≤ 20,clearly demonstrate the interaction; also recorded: induce,loss of TGF-beta2-induced ANGPTL4 expression,drastic reduction
–,prevents,"COC(=O)c1sccc1S(=O)(=O)Nc1ccc(NC(C)(C)C)cc1OC [compound 5, methyl 3-(N-(4-(tert-butylamino)-2-methoxyphenyl)sulfamoyl)thiophene-2-carboxylate]",–,–,does not influence the induction of ANGPTL4 expression,–
≤ 30,–,"CCCCCCNc1ccc(NS(=O)(=O)c2ccsc2C(=O)OC)cc1OC [compound 2, methyl 3-(N-(4-(hexylamino)-3-methoxyphenyl)sulfamoyl)thiophene-2-carboxylate]",≤ 20,clearly demonstrate the interaction; also recorded: induce,–,–
